From patent publication US20030003088A1, “Human pancreatic pluripotential stem cell line” (Board of Trustees operating Michigan State University, priority 2001, published 2003)
Entries after “also recorded” stand apart in the source; their conditions may differ.

Legend:
HPDE6c7 cells [1] = assay: Assay (B): inhibition of forskolin-induced GJIC, Lucifer yellow dye transfer, PAH given only at time −30 min; details: for GJIC, Average (% change over control at −30 min), −30 min / GJIC, Average (% change over control at −30 min), 0 hr / GJIC, Average (% change over control at −30 min), 24 hr / GJIC, Average (% change over control at −30 min), 48 hr / GJIC, Average (% change over control at −30 min), 72 hr: 70 μM PAH given at time −30 min only; for GJIC, Average (% change over control at −30 min), −30 min: at time of addition; for GJIC, Average (% change over control at −30 min), 0 hr / GJIC, Average (% change over control at −30 min), 24 hr / GJIC, Average (% change over control at −30 min), 48 hr / GJIC, Average (% change over control at −30 min), 72 hr: forskolin 5 μM
HPDE6c7 cells [2] = assay: Assay (A): inhibition of forskolin-induced GJIC, Lucifer yellow dye transfer, PAH given at every medium change; format: cell-based, human; details: for GJIC, Average (% change over control at −30 min), −30 min / GJIC, Average (% change over control at −30 min), 0 hr / GJIC, Average (% change over control at −30 min), 24 hr / GJIC, Average (% change over control at −30 min), 48 hr / GJIC, Average (% change over control at −30 min), 72 hr: 70 μM PAH given at every medium change; for GJIC, Average (% change over control at −30 min), −30 min: at time of addition; for GJIC, Average (% change over control at −30 min), 0 hr / GJIC, Average (% change over control at −30 min), 24 hr / GJIC, Average (% change over control at −30 min), 48 hr / GJIC, Average (% change over control at −30 min), 72 hr: forskolin 5 μM; for inhibition of GJIC induced by forskolin: 70 μM, PAH at every medium change
HPDE6c7 cells [3] = assay: GJIC competence under c-AMP elevating agents, Lucifer yellow dye transfer; format: cell-based, human; details: in KBM, 48 hours
Protocol: The ability of the HPDE6c7 cells to communicate via gap junctions under various growth conditions was measured using the lucifer yellow dye transfer method as developed by El-Fouly et al. (Exp. Cell Res. 168: 422-430 (1987)). Briefly, near confluent cultures of the cells grown as in Example 1 were subjected to the desired treatment, either growth in KBM or KBM containing c-AMP elevating agents such as forskolin or forskolin and 3-isobutyl-1-methylxanthine (IBMX), both from Sigma Chemical Co., St. Louis, Mo. Then, lucifer yellow was loaded into the cells by making two or three scrape lines in the monolayer with a sharp scalpel. […] Quantifying the extent of communication was done using an image analysis program.

HPDE6c7 cells [4] = assay: Induction of insulin production / release into the media; format: cell-based, human; details: for synthesis and release of insulin / appearance of insulin in the media: preliminary data
[5] = system: insulin promoter in HPDE6c7 cells; assay: Insulin promoter activity, AdINSGFP (GFP under insulin promoter) infected cells; format: cell-based, human
Protocol: To determine whether the insulin promoter in the HPDE6c7 cells is active, the cells were infected with adenovirus AdINSGFP, a virus vector that expresses the Green Fluorescence Protein (GFP) under the regulation of the insulin promoter.
Nicotinamide is known to affect cell differentiation. Therefore, the effect of nicotinamide on the activity of the insulin promoter in HPDE6c7 cells was determined. The […] cells were plated on plastic cell culture dishes for two days. Then the cells were infected with about 50 pfu/cell AdINSGFP for one hour. Afterwards, the cells were washed and incubated for three days in KBM containing 10 mM nicotinamide.

HPDE6c7 cells [6] = assay: Growth of cells in culture with growth factors; format: cell-based, human

Molecule: Cc1cccc2cc3ccccc3cc12 [1-MeA, 1-methylanthracine]
- GJIC, Average (% change over control at −30 min), −30 min (HPDE6c7 cells [1]): 100.00%
- GJIC, Average (% change over control at −30 min), 0 hr (HPDE6c7 cells [1]): 77.04%
- GJIC, Average (% change over control at −30 min), 24 hr (HPDE6c7 cells [1]): 233.32%
- GJIC, Average (% change over control at −30 min), 48 hr (HPDE6c7 cells [1]): 246.93%
- GJIC, Average (% change over control at −30 min), 72 hr (HPDE6c7 cells [1]): 261.32%
- lethal effects on the cells / cytotoxicity (HPDE6c7 cells [1]; 70 μM, PAH at −30 min only): no lethal effects; also recorded: not cytotoxic
- reversibility of the inhibition of GJIC (HPDE6c7 cells [1]; 70 μM, PAH at −30 min only): reversible
- GJIC, Average (% change over control at −30 min), −30 min (HPDE6c7 cells [2]): 100.00%
- GJIC, Average (% change over control at −30 min), 0 hr (HPDE6c7 cells [2]): 89.37%
- GJIC, Average (% change over control at −30 min), 24 hr (HPDE6c7 cells [2]): 92.24%
- GJIC, Average (% change over control at −30 min), 48 hr (HPDE6c7 cells [2]): 81.77%
- GJIC, Average (% change over control at −30 min), 72 hr (HPDE6c7 cells [2]): 212.39%
- inhibition of GJIC induced by forskolin (HPDE6c7 cells [2]): inhibited GJIC that had been induced by forskolin

Molecule: Cc1ccc2cc3ccccc3cc2c1 [2-MeA, 2-methylanthracine]
- GJIC, Average (% change over control at −30 min), −30 min (HPDE6c7 cells [1]): 100.00%
- GJIC, Average (% change over control at −30 min), 0 hr (HPDE6c7 cells [1]): 89.95%
- GJIC, Average (% change over control at −30 min), 24 hr (HPDE6c7 cells [1]): 265.70%
- GJIC, Average (% change over control at −30 min), 48 hr (HPDE6c7 cells [1]): 260.89%
- GJIC, Average (% change over control at −30 min), 72 hr (HPDE6c7 cells [1]): 260.89%
- GJIC, Average (% change over control at −30 min), −30 min (HPDE6c7 cells [2]): 100.00%
- GJIC, Average (% change over control at −30 min), 0 hr (HPDE6c7 cells [2]): 102.06%
- GJIC, Average (% change over control at −30 min), 24 hr (HPDE6c7 cells [2]): 197.60%
- GJIC, Average (% change over control at −30 min), 48 hr (HPDE6c7 cells [2]): 227.15%
- GJIC, Average (% change over control at −30 min), 72 hr (HPDE6c7 cells [2]): 271.19%
- inhibition of GJIC induced by forskolin (HPDE6c7 cells [2]): did not

Molecule: C=C[C@@]1(C)CC(=O)[C@]2(O)[C@@]3(C)[C@@H](O)CCC(C)(C)[C@@H]3[C@H](O)[C@H](OC(C)=O)[C@@]2(C)O1 [forskolin]
- increase in GJIC relative to complete keratinocyte serum-free medium (KSFM) (HPDE6c7 cells [3]): 2.2 fold

Molecule: NC(=O)c1cccnc1 [nicotinamide]
- induction of insulin production (HPDE6c7 cells [4]): induce the HPDE6c7 cells to produce insulin
- synthesis and release of insulin / appearance of insulin in the media (HPDE6c7 cells [4]): appear to synthesize and release insulin
- activation of the insulin promoter (GFP expressing cells) ([5]; 10 mM in KBM, three days): induces a substantial number of cells to activate the insulin promoter

Molecule: cholera toxin
- induction of insulin production (HPDE6c7 cells [4]): induce the HPDE6c7 cells to produce insulin

Molecule: hepatocyte growth factor: growth factor (mitogen)
- growth of the cells (HPDE6c7 cells [6]): an increase in growth of the cells
- synthesis and release of insulin / appearance of insulin in the media (HPDE6c7 cells [4]): appear to synthesize and release insulin

Molecule: sonic hedgehog
- induction of insulin production (HPDE6c7 cells [4]): induce the HPDE6c7 cells to produce insulin
- turning on the promoter for the insulin gene [5]: can turn on the promoter for the insulin gene

B1: beta-cellulin: growth factor (mitogen) (protein, UniProt P35070 32-111, looked up)
Betacellulin: DGNSTRSPETNGLLCGDPEENCAATTTQSKRKGHFSRCPKQYKHYCIKGRCRFVVAEQTPSCVCDEGYIGARCERVDLFY
- growth of the cells (HPDE6c7 cells [6]): an increase in growth of the cells
